Results as given in patent US8247211B2, “Glycopeptide antibiotics” (American Cyanamid Company, priority 2001, dated 2012).
Values after ≈ are worked out from the molar mass of the structure shown. Numbered stars: 1 amine (or outer) side, 2 acyl side, 3 side chain; on linkers, the order of the positions; unused ones are H or OH. Square brackets hold non-standard residues; d marks the D form. Peptide text beside a SMILES is read from it. * marks the point of attachment. ξ: configuration not given here. X1 = N=C1NCC(C(O)C(N[*:1])C(=O)[*:2])N1C1OC(CO)C(O)C(O)C1O; ξEnduracididine(βξ-OH,4'ξ) = N=C1NCC(C(O)C(N)C(=O)O)N1; ξPhe(4-Cl,βξ-Me) = CC(c1ccc(Cl)cc1)C(N)C(=O)O; X2 = OCC1OC(OC2C(CO)OC(*)C(O)C2O)C(O)C(O)C1O

Tests used:
Assay in all cases: In vitro antibacterial evaluation: minimum inhibitory concentration (MIC), broth dilution method
Format in all cases: cell-based
[1] = test system: Escherichia coli; conditions: Escherichia coli (GC 4560)
Procedure: (§1) The minimum inhibitory concentration (MIC), the lowest concentration of the antibiotic which inhibits growth of the test organism, is determined by the broth dilution method using Muller-Hinton II […] (Baltimore Biological Laboratories) following the recommendations of the National Committee for Clinical Laboratory Standards [Methods for dilution antimicrobial susceptibility tests for bacteria that grow aerobically, approved standard M7-A2, National Committee for Clinical Laboratory Standards, Villanova, Pa].
(§2) An inoculum level of 5×10^5 CFU/mL, and a range of antibiotic concentrations (64-0.06 μg/mL) is used. […] The test organisms include a spectrum of Gram-positive bacteria comprised of Staphylococcus sp., Streptococcus sp. and Enterococcus sp. These organisms include recent clinical isolates that are resistant to methicillin, penicillin and/or vancomycin.

[2] = test system: Streptococcus sp.; conditions: 18 hours at 35° C.
Procedure: as §1, §2

[3] = test system: Enterococcus sp.
Procedure: as §1, §2

[4] = test system: Staphylococcus sp.; conditions: 18 hours at 35° C.
Procedure: as §1, §2

Row | MIC Coagulase Negative Staphylococcus (GC 4547) [4] [µg/mL] | MIC Coagulase Negative Staphylococcus (GC 4547) ([4]; broth dilution) [µg/mL] | MIC Coagulase Negative Staphylococcus (GC 4548) [4] [µg/mL] | MIC Coagulase Negative Staphylococcus (GC 4548) ([4]; broth dilution) [µg/mL] | MIC Coagulase Negative Staphylococcus (GC 4549) [4] [µg/mL] | MIC Coagulase Negative Staphylococcus (GC 4549) ([4]; broth dilution) [µg/mL] | MIC Staphylococcus aureus (ATCC 29213) [4] [µg/mL] | MIC Staphylococcus aureus (ATCC 29213) ([4]; broth dilution) [µg/mL] | MIC Staphylococcus aureus (GC 4541) [4] [µg/mL] | MIC Staphylococcus aureus (GC 4541) ([4]; broth dilution) [µg/mL] | MIC Staphylococcus aureus (GC 4544) [4] [µg/mL] | MIC Staphylococcus aureus (GC 4544) ([4]; broth dilution) [µg/mL] | MIC Staphylococcus aureus (GC 4545) [4] [µg/mL] | MIC Staphylococcus aureus (GC 4545) ([4]; broth dilution) [µg/mL] | MIC Staphylococcus aureus-SMITH (GC 4543) [4] [µg/mL] | MIC Staphylococcus aureus-SMITH (GC 4543) ([4]; broth dilution) [µg/mL] | MIC Escherichia coli (GC 4560) [1] [µg/mL] | MIC Coagulase Negative Staphylococcus (GC 4551) [4] [µg/mL] | Compound | MIC Staphylococcus haemolyticus (GC 4546) [4] [µg/mL] | MIC Staphylococcus haemolyticus (GC 4546) ([4]; broth dilution) [µg/mL] | other results
1 |  |  |  |  |  |  |  |  |  |  |  |  |  |  |  |  |  |  | CC(c1ccccc1)C1NC(=O)CNC(=O)C(CO)NC(=O)C(CC2CNC(=N)N2C2OC(CO)C(O)C(O)C2O)NC(=O)C(CC2CNC(=N)N2)NC(=O)C(Cc2ccc(OC3OC(CO)C(OC4OC(CO)C(O)C(O)C4OCc4ccc(OCc5ccccc5)cc4)C(O)C3O)cc2)NC1=O (centres unmarked) [Example 246c] |  |  | MIC Escherichia coli (GC 4560) ([1]; 18 hours at 35° C.): 32 µg/mL (≈ 21.9 µM); MIC Streptococcus pneumoniae (GC 1894) ([2]; Streptococcus pneumoniae (GC 1894)): 64 µg/mL (≈ 43.8 µM); MIC Streptococcus pneumoniae (GC 1894) ([2]; broth dilution, inoculum 5×10^5 CFU/mL): 64 µg/mL (≈ 43.8 µM); MIC Enterococcus avium (GC 4558) ([3]; Enterococcus avium (GC 4558), 18 hours at 35° C.): 64 µg/mL (≈ 43.8 µM)
2 | 64 (≈ 48.1 µM) | 64 (≈ 48.1 µM) | 64 (≈ 48.1 µM) | 64 (≈ 48.1 µM) | 16 (≈ 12 µM) | 16 (≈ 12 µM) | 64 (≈ 48.1 µM) | 64 (≈ 48.1 µM) | 64 (≈ 48.1 µM) | 64 (≈ 48.1 µM) | 64 (≈ 48.1 µM) | 64 (≈ 48.1 µM) | 64 (≈ 48.1 µM) | 64 (≈ 48.1 µM) | 64 (≈ 48.1 µM) | 64 (≈ 48.1 µM) | 16 (≈ 12 µM) |  | CC(c1ccc(Cl)cc1)C1NC(=O)CNC(=O)C(CO)NC(=O)C(C(O)C2CNC(=N)N2C2OC(CO)C(O)C(O)C2O)NC(=O)C(C(O)C2CNC(=N)N2)NC(=O)C(Cc2ccc(OC3OC(CO)C(OC4OC(CO)C(O)C(O)C4O)C(O)C3O)cc2)NC1=O (stereo not drawn) [Example 262a, Cyclo[glycyl-4-chloro-β-methylphenylalanyl-O-(4-O-hexopyranosylhexopyranosyl)tyrosyl-3-(2-iminoimidazolidin-4-yl)seryl-3-(3-hexopyranosyl-2-iminoimidazolidin-4-yl)serylseryl]] (cyclo(G[ξPhe(4-Cl,βξ-Me)]Y(X2)[ξEnduracididine(βξ-OH,4'ξ)][X1]S); configuration not given here) | 64 (≈ 48.1 µM) | 64 (≈ 48.1 µM) | MIC Streptococcus agalactiae (GC 4564) ([2]; Streptococcus agalactiae (GC 4564)): 32 µg/mL (≈ 24.1 µM); MIC Streptococcus pyogenes (ID-3187) ([2]; Streptococcus pyogenes (ID-3187)): 32 µg/mL (≈ 24.1 µM)
3 | 64 (≈ 47.4 µM) | 64 (≈ 47.4 µM) | 64 (≈ 47.4 µM) | 64 (≈ 47.4 µM) | 32 (≈ 23.7 µM) | 32 (≈ 23.7 µM) | 64 (≈ 47.4 µM) | 64 (≈ 47.4 µM) | 64 (≈ 47.4 µM) | 64 (≈ 47.4 µM) | 64 (≈ 47.4 µM) | 64 (≈ 47.4 µM) | 64 (≈ 47.4 µM) | 64 (≈ 47.4 µM) | 64 (≈ 47.4 µM) | 64 (≈ 47.4 µM) | 32 (≈ 23.7 µM) | 64 (≈ 47.4 µM) | CC(C)C(=O)OCC1OC(OC2C(CO)OC(Oc3ccc(CC4NC(=O)C(Cc5ccccc5)NC(=O)CNC(=O)C(CO)NC(=O)C(C(O)C5CNC(=N)N5C5OC(CO)C(O)C(O)C5O)NC(=O)C(C(O)C5CNC(=N)N5)NC4=O)cc3)C(O)C2O)C(O)C(O)C1O (centres unmarked) [Example 283a] | 64 (≈ 47.4 µM) | 64 (≈ 47.4 µM) | MIC Coagulase Negative Staphylococcus (GC 4551) ([4]; broth dilution): 64 µg/mL (≈ 47.4 µM); MIC Staphylococcus aureus (GC 1131) [4]: 64 µg/mL (≈ 47.4 µM); MIC Staphylococcus aureus (GC 1131) ([4]; broth dilution): 64 µg/mL (≈ 47.4 µM); MIC Staphylococcus aureus (GC 3051) [4]: 64 µg/mL (≈ 47.4 µM); MIC Staphylococcus aureus (GC 3051) ([4]; broth dilution): 64 µg/mL (≈ 47.4 µM); MIC Staphylococcus aureus (GC 4542) [4]: 64 µg/mL (≈ 47.4 µM); MIC Staphylococcus aureus (GC 4542) ([4]; broth dilution): 64 µg/mL (≈ 47.4 µM); MIC Enterococcus faecium (GC 4557) [3]: 64 µg/mL (≈ 47.4 µM)
4 | 16 (≈ 11.7 µM) | 16 (≈ 11.7 µM) | 8 (≈ 5.86 µM) | 8 (≈ 5.86 µM) | 16 (≈ 11.7 µM) | 16 (≈ 11.7 µM) | 32 (≈ 23.4 µM) | 32 (≈ 23.4 µM) | 32 (≈ 23.4 µM) | 32 (≈ 23.4 µM) | 32 (≈ 23.4 µM) | 32 (≈ 23.4 µM) | 16 (≈ 11.7 µM) | 16 (≈ 11.7 µM) | 16 (≈ 11.7 µM) | 16 (≈ 11.7 µM) | 8 (≈ 5.86 µM) | 32 (≈ 23.4 µM) | CC(C)CC(=O)OCC1OC(OC2C(CO)OC(Oc3ccc(CC4NC(=O)C(Cc5ccccc5)NC(=O)CNC(=O)C(CO)NC(=O)C(C(O)C5CNC(=N)N5C5OC(CO)C(O)C(O)C5O)NC(=O)C(C(O)C5CNC(=N)N5)NC4=O)cc3)C(O)C2O)C(O)C(O)C1O (centres unmarked) [Example 283c, Cyclo[glycylphenylalanyl-O-[4-O-[6-O-(3-methylbutanoyl)-hexopyranosyl]hexopyranosyl]tyrosyl-3-(2-iminoimidazolidin-4-yl)seryl-3-(3-hexopyranosyl-2-iminoimidazolidin-4-yl)serylseryl]] | 16 (≈ 11.7 µM) | 16 (≈ 11.7 µM) | MIC Coagulase Negative Staphylococcus (GC 4551) ([4]; broth dilution): 32 µg/mL (≈ 23.4 µM); MIC Staphylococcus aureus (GC 1131) [4]: 32 µg/mL (≈ 23.4 µM); MIC Staphylococcus aureus (GC 1131) ([4]; broth dilution): 32 µg/mL (≈ 23.4 µM); MIC Staphylococcus aureus (GC 3051) [4]: 32 µg/mL (≈ 23.4 µM); MIC Staphylococcus aureus (GC 3051) ([4]; broth dilution): 32 µg/mL (≈ 23.4 µM); MIC Staphylococcus aureus (GC 3053) [4]: 64 µg/mL (≈ 46.9 µM); MIC Staphylococcus aureus (GC 3053) ([4]; broth dilution): 64 µg/mL (≈ 46.9 µM); MIC Staphylococcus aureus (GC 4542) [4]: 32 µg/mL (≈ 23.4 µM); MIC Staphylococcus aureus (GC 4542) ([4]; broth dilution): 32 µg/mL (≈ 23.4 µM); MIC Enterococcus faecium (GC 4557) [3]: 16 µg/mL (≈ 11.7 µM)
